Measurements taken from patent US20220378923A1, “BET DEGRADER” (KYOWA KIRIN CO., LTD., priority 2019, published 2022).

Target: T1, interaction between BRD2 and E3 ligase DCAF16 (Homo sapiens, UniProt P25440)
T1 construct: expressed in transfected cells; host or cells: HEK293
Test: Verification of BET-DCAF16 interaction, NanoBRET in HEK293 cells (Test Example 7)
Type: cell-based
Conditions: test compound 10 μmol/L, 2 hours; HEK293 cells expressing Nluc-BRD2 and DCAF16-HaloTag; bortezomib; average of n=3
Method: HEK293 cells (ATCC® CRL-1573™) were cultured using a carbon dioxide gas incubator (95% air, 5% CO2) at 37° C. in DMEM, High Glucose, Pyruvate (DMEM: Code No. 11995073, Thermo Fisher Scientific) in which inactivated fetal bovine serum (FBS: Code No. 10099-148 (Thermo Fisher Scientific) was added in an amount to give a final concentration of 10 vol %. A Falcon® 100 mm×20 mm cell culture dish (Code No. 353003, CORNING) was used for cell culture.
A sequence encoding BRD2 was cleaved from pFN21AB3863 (Code No. FHC01342, Kazusa Genome Technologies) using Flexi Enzyme Blend (SgfI and PmeI) (Code No. R1852, Promega) and recombined with pFN31A Nluc CMV-Hygro Flexi® Vector (Code No. N131A, Promega) similarly cleaved using Flexi Enzyme Blend (SgfI and PmeI) to prepare a plasmid pFN31A_BRD2 expressing BRD2 with an Nluc tag added to the N-terminal. A sequence encoding DCAF16 having sgfI and pmeI restriction enzyme sites at both ends was amplified and purified by polymerase chain reaction using two primers, […] (SEQ ID NO: 4) and […] (SEQ ID NO: 5) from cDNA derived from HEK293 cells. Cleavage was performed using Flexi Enzyme Blend (SgfI and PmeI), and pFC27K HaloTag® CMV-neo Flexi® Vector (Code No. G8431, Promega) cleaved using Carboxy Flexi Enzyme Blend (Sgf I and EcoICR I) (Code No. R1901, Promega) was recombined to prepare a plasmid pFC27K_DCAF16 expressing DCAF16 with HaloTag added to the C-terminal. Sequencing was performed and confirmed that the sequence encoding DCAF16 matched NM_001345880.
Cultured HEK293 cells were washed with DPBS, no calcium, no magnesium (DPBS: Code No. 14190144, Thermo Fisher Scientific) and harvested using TrypLE™ Express Enzyme (1×), phenol red (TrypLE: Code No. 12605036, Thermo Fisher Scientific), and prepared to be 4.0×10^5 cells/mL in DMEM. A volume of 12 mL of the cell suspension was seeded in a Falcon® 100 mm×20 mm cell culture dish and cultured in a carbon dioxide gas incubator at 37° C. for 6 hours. For one dish, 12 μg of pFC27K_DCAF16, 0.12 μg of p FN31A_BRD2, 48 μL of FuGENE® HD Transfection Reagent (Code No. E2312, Promega) were added to 600 μL of Opti-MEM™ I Reduced Serum Medium, no phenol red (Opti-MEM: Code No. 11058021, Thermo Fisher Scientific) and mixed. The mixture was allowed to stand for 15 minutes and added to HEK293 cells. After 20 hours, the cells were washed with DPBS, no calcium, no magnesium, harvested from the dish using TrypLE, and then neutralized in DMEM. After centrifugation, the supernatant was discarded, and the cells were prepared to be 2.2×10^5 cells/mL using Opti-MEM containing 4% FBS. HaloTag® NanoBRET™ 618 Ligand contained in NanoBRET™ Nano-Glo® Detection System (Code No. N1662, Promega) and bortezomib as a proteasome inhibitor were added to be a 1000-fold dilution. In addition, a group was prepared to which DMSO was added instead of HaloTag® NanoBRET™ 618 Ligand. 90 μL of the cell suspension was seeded in CulturPlate-96 (Code No. 6005688, PerkinElmer), and allowed to stand in a carbon dioxide gas incubator at 37° C. for 30 minutes. A volume of 10 mmol/L of a solution of the test compound in DMSO was adjusted to be 100 μmol/L with Opti-MEM, 10 μL of the solution was added to each well, and then the mixture was allowed to stand in a carbon dioxide gas incubator at 37° C. for 2 hours. At this time, all the groups were prepared so that the final concentration of DMSO was 0.1 vol % including the group to which the test compound was not added. NanoBRET™ Nano-Glo® Substrate included in the NanoBRET™ Nano-Glo® Detection System was diluted 100-fold with Opti-MEM. After adding 25 μL of the dilution each and stirring for 30 seconds, measurement was performed with an Emission Filter of 460 nm and 620 nm using EnVision (PerkinElmer). The BRET ratio of 10 μmol/L for each test compound was calculated using the following formula. The experiment was performed by n=3 and the average value was calculated. […]

T1 sequence (P25440 whole entry): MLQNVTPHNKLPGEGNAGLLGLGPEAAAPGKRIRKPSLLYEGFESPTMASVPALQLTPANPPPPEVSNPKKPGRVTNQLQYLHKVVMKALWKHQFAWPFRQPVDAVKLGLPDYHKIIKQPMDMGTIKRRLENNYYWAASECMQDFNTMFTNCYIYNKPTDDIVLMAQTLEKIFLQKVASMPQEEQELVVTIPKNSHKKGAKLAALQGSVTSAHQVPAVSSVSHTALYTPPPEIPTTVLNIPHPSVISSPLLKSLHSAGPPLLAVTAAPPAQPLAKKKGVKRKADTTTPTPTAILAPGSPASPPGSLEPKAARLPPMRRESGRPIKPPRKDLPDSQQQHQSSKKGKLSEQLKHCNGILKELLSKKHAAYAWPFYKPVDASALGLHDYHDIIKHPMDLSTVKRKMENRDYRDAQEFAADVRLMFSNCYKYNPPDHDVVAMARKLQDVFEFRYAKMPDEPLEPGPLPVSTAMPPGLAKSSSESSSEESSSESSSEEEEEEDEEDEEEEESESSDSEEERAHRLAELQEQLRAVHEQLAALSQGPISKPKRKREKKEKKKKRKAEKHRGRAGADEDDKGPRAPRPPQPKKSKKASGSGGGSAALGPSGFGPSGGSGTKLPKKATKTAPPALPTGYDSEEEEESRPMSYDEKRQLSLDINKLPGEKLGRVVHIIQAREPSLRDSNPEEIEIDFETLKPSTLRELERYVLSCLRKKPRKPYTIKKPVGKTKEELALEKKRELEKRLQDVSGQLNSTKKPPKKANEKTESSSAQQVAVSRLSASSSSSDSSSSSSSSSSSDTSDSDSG
T1 sequence (Q9NXF7 whole entry partner): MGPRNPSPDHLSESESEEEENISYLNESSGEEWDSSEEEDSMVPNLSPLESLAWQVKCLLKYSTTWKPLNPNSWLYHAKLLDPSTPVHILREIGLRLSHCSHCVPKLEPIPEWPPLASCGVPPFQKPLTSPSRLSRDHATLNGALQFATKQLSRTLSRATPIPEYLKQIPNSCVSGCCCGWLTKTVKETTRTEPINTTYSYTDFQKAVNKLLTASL

Row | Structure (SMILES) | BRET Ratio
1 | CCC(=O)N1c2ccccc2[C@H](Nc2ccc(C(=O)NCc3cn(-c4ccc(N[C@@H]5C[C@H](C)N(C(=O)CC)c6ccccc65)cc4)nn3)cc2)C[C@@H]1C [Compound 3a, 4-{[(2S,4R)-2-Methyl-1-propionyl-1,2,3,4-tetrahydroquinolin-4-yl]amino}-N-{[1-(4-{[(2S,4R)-2-methyl-1-propionyl-1,2,3,4-tetrahydroquinolin-4-yl]amino}phenyl)-1H-1,2,3-triazol-4-yl]methyl}benzamide] | 8.51
2 | Cc1sc2c(c1C)C(c1ccc(C(=O)NCc3cn(-c4ccc(C5=N[C@@H](CC(=O)OC(C)(C)C)c6nnc(C)n6-c6sc(C)c(C)c65)cc4)nn3)cc1)=N[C@@H](CC(=O)OC(C)(C)C)c1nnc(C)n1-2 [Compound 3b, tert-Butyl 2-[(S)-4-(4-{4-[(4-{(S)-6-[2-(tert-butoxy)-2-oxoethyl]-2,3,9-trimethyl-6H-thieno[3,2-f][1,2,4]triazolo[4,3-a][1,4]diazepin-4-yl}benzamide)methyl]-1H-1,2,3-triazol-1-yl}phenyl)-2,3,9-trimethyl-6H-thieno[3,2-f][1,2,4]triazolo[4,3-a][1,4]diazepin-6-yl]acetate] | 6.06
3 | CCC(=O)N1c2ccccc2[C@H](Nc2ccc(NC(=O)CCCC(=O)Nc3ccc(N[C@@H]4C[C@H](C)N(C(=O)CC)c5ccccc54)cc3)cc2)C[C@@H]1C [Compound 6k, N^1,N^5-Bis(4-(((2S,4R)-2-methyl-1-propionyl-1,2,3,4-tetrahydroquinolin-4-yl)amino)phenyl)glutaramide] | 7.07
4 | CCC(=O)N1c2ccccc2[C@H](Nc2ccc(-n3cc(CNC(=O)c4ccc(Cn5c(CC)cc6c5CCCC6=O)cc4)nn3)cc2)C[C@@H]1C [Compound 15f, 4-((2-Ethyl-4-oxo-4,5,6,7-tetrahydro-1H-indol-1-yl)methyl)-N-((1-(4-(((2S,4R)-2-methyl-1-propionyl-1,2,3,4-tetrahydroquinolin-4-yl)amino)phenyl)-1H-1,2,3-triazol-4-yl)methyl)benzamide] | 5.99
5 | CCC(=O)N1c2ccccc2[C@H](Nc2ccc(NC(=O)CCCC(=O)NC3CCC(N[C@@H]4C[C@H](C)N(C(=O)CC)c5ccccc54)CC3)cc2)C[C@@H]1C (stereo partly drawn) [Compound 7o, N^1-((1R,4r)-4-(((2S,4R)-2-Methyl-1-propionyl-1,2,3,4-tetrahydroquinolin-4-yl)amino)cyclohexyl)-N^5-(4-(((2S,4R)-2-methyl-1-propionyl-1,2,3,4-tetrahydroquinolin-4-yl)amino)phenyl)glutaramide] | 6.69
6 | CCC(=O)N1c2ccccc2[C@H](Nc2ccc(C(=O)NCC(=O)CNC(=O)c3ccc(N[C@@H]4C[C@H](C)N(C(=O)CC)c5ccccc54)cc3)cc2)C[C@@H]1C [Compound 1l, N,N′-(2-Oxopropane-1,3-diyl)bis(4-{[(2S,4R)-2-methyl-1-propionyl-1,2,3,4-tetrahydroquinolin-4-yl]amino}benzamide)] | 8.03
7 | CCC(=O)N1c2ccccc2[C@H](Nc2ccc(C(=O)NCCCNC(=O)c3ccc(C4=N[C@@H](CC(=O)OC(C)(C)C)c5nnc(C)n5-c5sc(C)c(C)c54)cc3)cc2)C[C@@H]1C [Compound 1h, tert-Butyl 2-[(S)-2,3,9-trimethyl-4-(4-{[3-(4-{[(2S,4R)-2-methyl-1-propionyl-1,2,3,4-tetrahydroquinolin-4-yl]amino}benzamide)propyl]carbamoyl}phenyl)-6H-thieno[3,2-f][1,2,4]triazolo[4,3-a][1,4]diazepin-6-yl]acetate] | 6.84
8 | CCC(=O)N1c2ccccc2[C@H](Nc2ccc(NC(=O)N3CCN(C(=O)C4CCC(N[C@@H]5C[C@H](C)N(C(=O)CC)c6ccccc65)CC4)CC3)cc2)C[C@@H]1C (stereo partly drawn) [Compound 7p, 4-((1R,4r)-4-(((2S,4R)-2-Methyl-1-propionyl-1,2,3,4-tetrahydroquinolin-4-yl)amino)cyclohexane-1-carbonyl)-N-(4-(((2S,4R)-2-methyl-1-propionyl-1,2,3,4-tetrahydroquinolin-4-yl)amino)phenyl)piperazine-1-carboxamide] | 6.8
9 | CCC(=O)N1c2ccccc2[C@H](Nc2ccc(NC(=O)CCCC(=O)NC3CCN(Cc4cc(O)cc(-c5c(C)noc5C)c4)CC3)cc2)C[C@@H]1C [Compound 12c, N^1-(1-(3-(3,5-Dimethylisoxazol-4-yl)-5-hydroxybenzyl)piperidin-4-yl)-N^5-(4-(((2S,4R)-2-methyl-1-propionyl-1,2,3,4-tetrahydroquinolin-4-yl)amino)phenyl)glutaramide] | 7.6
10 | CCC(=O)N1c2ccccc2[C@H](Nc2ccc(NC(=O)CCCC(=O)Nc3ccc(Cn4c(C(=O)OCCN(C)C)cc5c4CCCC5=O)cc3)cc2)C[C@@H]1C [Compound 15a, 2-(Dimethylamino)ethyl 1-(4-(5-((4-(((2S,4R)-2-methyl-1-propionyl-1,2,3,4-tetrahydroquinolin-4-yl)amino)phenyl)amino)-5-oxopentanamide)benzyl)-4-oxo-4,5,6,7-tetrahydro-1H-indole-2-carboxylate] | 5.88
11 | CCC(=O)N1c2ccccc2[C@H](Nc2ccc(NC(=O)CNC(=O)N[C@H]3CC[C@H](N[C@@H]4C[C@H](C)N(C(=O)CC)c5ccccc54)CC3)cc2)C[C@@H]1C [Compound 8j, 2-(3-((1R,4R)-4-(((2S,4R)-2-Methyl-1-propionyl-1,2,3,4-tetrahydroquinolin-4-yl)amino)cyclohexyl)ureido)-N-(4-(((2S,4R)-2-methyl-1-propionyl-1,2,3,4-tetrahydroquinolin-4-yl)amino)phenyl)acetamide] | 7.07
12 | CCC(=O)N1c2ccccc2[C@H](Nc2ccc(C(=O)N3CCn4c(-c5ccc(N[C@@H]6C[C@H](C)N(C(=O)CC)c7ccccc76)cc5)cnc4C3)cc2)C[C@@H]1C [Compound 3e, 1-[(2S,4R)-2-Methyl-4-({4-[3-(4-{[(2S,4R)-2-methyl-1-propionyl-1,2,3,4-tetrahydroquinolin-4-yl]amino}phenyl)-5,6,7,8-tetrahydroimidazo[1,2-a]pyrazine-7-carbonyl]phenyl}amino)-3,4-dihydroquinolin-1(2H)-yl]propan-1-one] | 5.96
13 | CCC(=O)N1c2ccccc2[C@H](Nc2ccc(-n3cc(CCNC(=O)[C@H]4CC[C@H](N[C@@H]5C[C@H](C)N(C(=O)CC)c6ccccc65)CC4)nn3)cc2)C[C@@H]1C [Compound 8a, (1R,4r)-4-(((2S,4R)-2-Methyl-1-propionyl-1,2,3,4-tetrahydroquinolin-4-yl)amino)-N-(2-(1-(4-(((2S,4R)-2-methyl-1-propionyl-1,2,3,4-tetrahydroquinolin-4-yl)amino)phenyl)-1H-1,2,3-triazol-4-yl)ethyl)cyclohexane-1-carboxamide] | 7.27
